Measured values published in patent US8871934B2, “Fluorene compound and pharmaceutical use thereof” (Japan Tobacco Inc., priority 2008, dated 2014).
Like-named read-outs stand apart in the source and are kept apart here.

Target: human PDHK2 (hPDHK2) (Homo sapiens (Human), UniProt Q15119)
Experiment: Inhibitory action of PDHK activity in vitro (kinase reaction, residual PDH activity measured)
Format: biochemical
[1] = PDHK inhibitory activity, class symbol of IC50
[2] = read-out: PDHK inhibitory activity IC50

Row | SMILES | IC50 [1] [nM] | IC50 [2] [nM]
1 | OC1(C(F)(F)F)c2ccccc2-c2ccc(/C=C/c3ccccc3)cc21 (stereo not drawn) [compound 252] | > 1000 | 1270
2 | OC1(C(F)(F)F)c2ccccc2-c2ccc(OCC3CCCCC3)cc21 (stereo not drawn) [compound 253] | > 1000 | 1950
3 | OC1(C(F)(F)F)c2ccccc2-c2ccc(OCC3CCCC3)cc21 (stereo not drawn) [compound 254] | > 1000 | 1130
4 | OC1(C(F)(F)F)c2ccccc2-c2ccc(OCC3CCC3)cc21 (stereo not drawn) [compound 255] | > 1000 | 1080
5 | OC1(C(F)(F)F)c2ccccc2-c2ccc(OCC3CC3)cc21 (stereo not drawn) [compound 256] | > 1000 | 1000
6 | CCOC(=O)CCCOc1ccc2c(c1)C(O)(C(F)(F)F)c1ccccc1-2 (stereo not drawn) [compound 257] | 100 to 1000 | 567
7 | O=C(O)CCCOc1ccc2c(c1)C(O)(C(F)(F)F)c1ccccc1-2 (stereo not drawn) [compound 258] | > 1000 | 2620
8 | OC1(C(F)(F)F)c2ccccc2-c2ccc(OC3CCCC3)cc21 (stereo not drawn) [compound 259] | > 1000 | 1390
9 | OC1(C(F)(F)F)c2ccccc2-c2ccc(OC3CCCCC3)cc21 (stereo not drawn) [compound 260] | > 1000 | 2810
10 | OC1(C(F)(F)F)c2ccccc2-c2ccc(OCc3cccs3)cc21 (stereo not drawn) [compound 261] | > 1000 | 1400
11 | OC1(C(F)(F)F)c2ccccc2-c2ccc(OCc3ccccc3)cc21 (stereo not drawn) [compound 262] | > 1000 | 1360
12 | Cn1cc(-c2cccc3c2-c2ccccc2C3(O)C(F)(F)F)cn1 (stereo not drawn) [compound 263] | 100 to 1000 | 133
13 | CC(C)COc1ccc2c(c1)C(O)(C(F)(F)F)c1ccccc1-2 (stereo not drawn) [compound 264] | > 1000 | 1170
14 | CCCOc1ccc2c(c1)C(O)(C(F)(F)F)c1ccccc1-2 (stereo not drawn) [compound 265] | > 1000 | 1260
15 | OC1(C(F)(F)F)c2ccccc2-c2ccc(-c3cc(Cl)cc(Cl)c3)cc21 (stereo not drawn) [compound 266] | > 1000 | 1560
16 | Cc1nnc(-c2cccc3c2-c2ccccc2C3(O)C(F)(F)F)o1 (stereo not drawn) [compound 267] | > 1000 | 1200
17 | OC1(C(F)(F)F)c2ccccc2-c2c(C3CC3)cccc21 (stereo not drawn) [compound 268] | > 1000 | > 10000
18 | CC1CCN(c2ccc3c(c2)C(O)(C(F)(F)F)c2ccccc2-3)C1 (stereo not drawn) [compound 269] | > 1000 | 1340

Row | SMILES | IC50 [1] [nM] | IC50 [2] [nM]
19 | OCCCCOc1ccc2c(c1)C(O)(C(F)(F)F)c1ccccc1-2 (stereo not drawn) [compound 270] | 100 to 1000 | 533
20 | CC(C)(C)C(=O)N1CCN(c2cc(Cl)c3c(c2)C(O)(C(F)(F)F)c2ccccc2-3)CC1 (stereo not drawn) [compound 271] | < 100 | 56
21 | OC1(C(F)(F)F)c2ccccc2-c2c(Br)cc(Cl)cc21 (stereo not drawn) [compound 272] | 100 to 1000 | 342
22 | Cc1ccc(-c2cccc3c2-c2ccccc2C3(O)C(F)(F)F)cn1 (stereo not drawn) [compound 273] | 100 to 1000 | 396
23 | Cc1nc(-c2cccc3c2-c2ccccc2C3(O)C(F)(F)F)no1 (stereo not drawn) [compound 274] | > 1000 | 7490
24 | Cc1ncc(-c2cccc3c2-c2ccccc2C3(O)C(F)(F)F)o1 (stereo not drawn) [compound 275] | 100 to 1000 | 278
25 | CC(C)CCOc1ccc2c(c1)C(O)(C(F)(F)F)c1ccccc1-2 (stereo not drawn) [compound 276] | > 1000 | 1010
26 | OC1(C(F)(F)F)c2ccccc2-c2c(-c3cn[nH]c3)cccc21 (stereo not drawn) [compound 277] | 100 to 1000 | 125
27 | CCCCCOc1ccc2c(c1)C(O)(C(F)(F)F)c1ccccc1-2 (stereo not drawn) [compound 278] | 100 to 1000 | 862
28 | CC(C)(C)COc1ccc2c(c1)C(O)(C(F)(F)F)c1ccccc1-2 (stereo not drawn) [compound 279] | > 1000 | 1850
29 | NC(=O)CCCOc1ccc2c(c1)C(O)(C(F)(F)F)c1ccccc1-2 (stereo not drawn) [compound 280] | > 1000 | 1510
30 | CNC(=O)CCCOc1ccc2c(c1)C(O)(C(F)(F)F)c1ccccc1-2 (stereo not drawn) [compound 281] | > 1000 | 1000
31 | CN(C)C(=O)CCCOc1ccc2c(c1)C(O)(C(F)(F)F)c1ccccc1-2 (stereo not drawn) [compound 282] | 100 to 1000 | 226
32 | CCOC(=O)CCCCOc1ccc2c(c1)C(O)(C(F)(F)F)c1ccccc1-2 (stereo not drawn) [compound 283] | 100 to 1000 | 571
33 | OCCCOc1ccc2c(c1)C(O)(C(F)(F)F)c1ccccc1-2 (stereo not drawn) [compound 284] | > 1000 | 1170
34 | CC(C)(C)C(=O)N1CCN(c2cc(-c3cccnc3)c3c(c2)C(O)(C(F)(F)F)c2ccccc2-3)CC1 (stereo not drawn) [compound 285] | < 100 | 20
35 | Cn1cc(-c2cc(Cl)cc3c2-c2ccccc2C3(O)C(F)(F)F)cn1 (stereo not drawn) [compound 286] | < 100 | 17
36 | O=C(O)COc1ccc2c(c1)C(O)(C(F)(F)F)c1ccccc1-2 (stereo not drawn) [compound 287] | > 1000 | > 10000
